Data as given in ChEMBL document CHEMBL1201862, “PubChem BioAssay data set” (2004).
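In this assay, cells in 96-well plates receive the compound at five concentrations for 48 hours. Endpoints are linearly interpolated between the surrounding concentrations. GI50: concentration for 50% inhibition of growth.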 Active and inactive are the calls of the source. Rule as the data show it: active = GI50 up to about 1.1 µM and inactive = higher.

Key:
Experiment in all cases: NCI anticancer screen, dose series, 48 h
786-0 = test system: 786-0
A498 = test system: A498
A549 = test system: A549
ACHN = test system: ACHN
BT-549 = test system: BT-549
CAKI-1 = test system: CAKI-1
CCRF-CEM = test system: CCRF-CEM
COLO 205 = test system: COLO 205
DU-145 = test system: DU-145
EKVX = test system: EKVX
HCC 2998 = test system: HCC 2998
HCT-116 = test system: HCT-116
HCT-15 = test system: HCT-15
HL-60 = test system: HL-60
HOP-62 = test system: HOP-62
HOP-92 = test system: HOP-92
HT-29 = test system: HT-29
Hs-578T = test system: Hs-578T
IGROV-1 = test system: IGROV-1
K562 = test system: K562
KM12 = test system: KM12
M14 = test system: M14
MCF7 = test system: MCF7
MDA-MB-231 = test system: MDA-MB-231
MDA-MB-435 = test system: MDA-MB-435
MDA-N = test system: MDA-N
MOLT-4 = test system: MOLT-4
Malme-3M = test system: Malme-3M
NCI-H226 = test system: NCI-H226
NCI-H23 = test system: NCI-H23
NCI-H460 = test system: NCI-H460
NCI-H522 = test system: NCI-H522
NCI/ADR-RES = test system: NCI/ADR-RES
OVCAR-3 = test system: OVCAR-3
OVCAR-4 = test system: OVCAR-4
OVCAR-5 = test system: OVCAR-5
OVCAR-8 = test system: OVCAR-8
PC-3 = test system: PC-3
RPMI-8226 = test system: RPMI-8226
RXF 393 = test system: RXF 393
SF-268 = test system: SF-268
SF-295 = test system: SF-295
SF-539 = test system: SF-539
SK-MEL-28 = test system: SK-MEL-28
SK-MEL-2 = test system: SK-MEL-2
SK-MEL-5 = test system: SK-MEL-5
SK-OV-3 = test system: SK-OV-3
SN12C = test system: SN12C
SNB-19 = test system: SNB-19
SNB-75 = test system: SNB-75
SR = test system: SR
SW-620 = test system: SW-620
T47D = test system: T47D
TK-10 = test system: TK-10
U-251 = test system: U-251
UACC-257 = test system: UACC-257
UACC-62 = test system: UACC-62
UO-31 = test system: UO-31
LOX IMVI = test system: LOX IMVI

CC(=O)O[C@H]1CCc2c(cc(N)c3c2C(=O)C[C@]2(C)C([C@H](C)CCCC(C)C)CCC32C)C1(C)C (some centres undefined)
GI50 (786-0): > 100 µM (inactive)
GI50 (A498): 73.6 µM (inactive)
GI50 (A549): > 100 µM (inactive)
GI50 (ACHN): > 100 µM (inactive)
GI50 (BT-549): > 100 µM (inactive)
GI50 (CAKI-1): > 100 µM (inactive)
GI50 (CCRF-CEM): > 100 µM (inactive)
GI50 (COLO 205): > 100 µM (inactive)
GI50 (DU-145): > 100 µM (inactive)
GI50 (EKVX): > 100 µM (inactive)
GI50 (HCC 2998): > 100 µM (inactive)
GI50 (HCT-116): 89.7 µM (inactive)
GI50 (HCT-15): > 100 µM
GI50 (HL-60): 66.5 µM (inactive)
GI50 (HOP-62): > 100 µM (inactive)
GI50 (HOP-92): > 100 µM (inactive)
GI50 (HT-29): 42.2 µM (inactive)
GI50 (Hs-578T): 17.1 µM (inactive)
GI50 (IGROV-1): > 100 µM (inactive)
GI50 (K562): 33.7 µM (inactive)
GI50 (KM12): > 100 µM (inactive)
GI50 (M14): > 100 µM (inactive)
GI50 (MCF7): 57.9 µM (inactive)
GI50 (MDA-MB-231): > 100 µM (inactive)
GI50 (MDA-MB-435): 86.7 µM (inactive)
GI50 (MDA-N): > 100 µM (inactive)
GI50 (MOLT-4): > 100 µM (inactive)
GI50 (Malme-3M): > 100 µM (inactive)
GI50 (NCI-H226): > 100 µM (inactive)
GI50 (NCI-H23): 60.5 µM (inactive)
GI50 (NCI-H460): > 100 µM (inactive)
GI50 (NCI-H522): > 100 µM (inactive)
GI50 (NCI/ADR-RES): 42.4 µM (inactive)
GI50 (OVCAR-3): > 100 µM (inactive)
GI50 (OVCAR-4): 92.7 µM (inactive)
GI50 (OVCAR-5): > 100 µM (inactive)
GI50 (OVCAR-8): 33.3 µM (inactive)
GI50 (PC-3): 72.8 µM (inactive)
GI50 (RPMI-8226): > 100 µM (inactive)
GI50 (RXF 393): > 100 µM (inactive)
GI50 (SF-268): > 100 µM (inactive)
GI50 (SF-295): > 100 µM (inactive)
GI50 (SF-539): 71.9 µM (inactive)
GI50 (SK-MEL-28): > 100 µM (inactive)
GI50 (SK-MEL-2): > 100 µM (inactive)
GI50 (SK-MEL-5): > 100 µM (inactive)
GI50 (SK-OV-3): > 100 µM (inactive)
GI50 (SN12C): > 100 µM (inactive)
GI50 (SNB-19): > 100 µM (inactive)
GI50 (SNB-75): > 100 µM (inactive)
GI50 (SR): 33.9 µM (inactive)
GI50 (SW-620): > 100 µM (inactive)
GI50 (T47D): > 100 µM (inactive)
GI50 (TK-10): > 100 µM (inactive)
GI50 (U-251): > 100 µM (inactive)
GI50 (UACC-257): 85.7 µM (inactive)
GI50 (UACC-62): > 100 µM (inactive)
GI50 (UO-31): > 100 µM (inactive)

COc1cc2c(c(OC)c1OC)-c1ccc(SC)cc1[C@H](OC(=O)c1ccccc1)CC2
GI50 (786-0): 0.106 µM (active)
GI50 (A498): 0.437 µM (active)
GI50 (A549): 0.123 µM (active)
GI50 (ACHN): 0.189 µM (active)
GI50 (BT-549): 0.309 µM (active)
GI50 (CAKI-1): 0.407 µM (active)
GI50 (CCRF-CEM): 0.0488 µM (active)
GI50 (COLO 205): 0.188 µM (active)
GI50 (DU-145): 0.203 µM (active)
GI50 (EKVX): 0.155 µM (active)
GI50 (HCC 2998): 0.32 µM (active)
GI50 (HCT-116): 0.0817 µM (active)
GI50 (HCT-15): 0.0667 µM
GI50 (HL-60): 0.146 µM (active)
GI50 (HOP-92): 0.286 µM (active)
GI50 (HT-29): 0.122 µM (active)
GI50 (Hs-578T): 0.132 µM (active)
GI50 (IGROV-1): 0.145 µM (active)
GI50 (K562): 0.0849 µM (active)
GI50 (KM12): 0.0488 µM (active)
GI50 (LOX IMVI): 0.0743 µM (active)
GI50 (M14): 0.0519 µM (active)
GI50 (MCF7): 0.0311 µM (active)
GI50 (MDA-MB-231): 0.284 µM (active)
GI50 (MDA-MB-435): 0.0168 µM (active)
GI50 (MDA-N): 0.0136 µM (active)
GI50 (MOLT-4): 0.151 µM (active)
GI50 (NCI-H226): 0.237 µM (active)
GI50 (NCI-H23): 0.0935 µM (active)
GI50 (NCI-H460): 0.149 µM (active)
GI50 (NCI-H522): 0.0324 µM (active)
GI50 (NCI/ADR-RES): 0.0946 µM (active)
GI50 (OVCAR-3): 0.199 µM (active)
GI50 (OVCAR-5): 0.622 µM (active)
GI50 (OVCAR-8): 0.158 µM (active)
GI50 (PC-3): 0.0673 µM (active)
GI50 (RPMI-8226): 0.0424 µM (active)
GI50 (RXF 393): 0.0334 µM (active)
GI50 (SF-268): 0.214 µM (active)
GI50 (SF-295): 0.0809 µM (active)
GI50 (SF-539): 0.0369 µM (active)
GI50 (SK-MEL-28): 0.0571 µM (active)
GI50 (SK-MEL-2): > 100 µM (inactive)
GI50 (SK-MEL-5): 0.0697 µM (active)
GI50 (SK-OV-3): 5.04 µM (inactive)
GI50 (SN12C): 0.254 µM (active)
GI50 (SNB-19): 0.0828 µM (active)
GI50 (SNB-75): > 100 µM (inactive)
GI50 (SR): 0.0247 µM (active)
GI50 (SW-620): 0.0313 µM (active)
GI50 (T47D): 27.5 µM (inactive)
GI50 (TK-10): > 100 µM (inactive)
GI50 (U-251): 0.071 µM (active)
GI50 (UACC-257): > 100 µM (inactive)
GI50 (UACC-62): 0.0753 µM (active)
GI50 (UO-31): 0.145 µM (active)
